From PMC7305224, “Mutually stabilizing interactions between proto-peptides and RNA” (Nature Communications, 2020)
Non-standard residues stand in square brackets, D forms with d. Residues, ends and D or L forms follow the SMILES beside them. *: point of attachment. 5FAM = O=C1OC2(c3ccc(O)cc3Oc3cc(O)ccc32)c2ccc(C(=O)*)cc21; Dab = NCC[C@H](N)C(=O)O; Lac = C[C@H](O)C(=O)O

How the values were obtained:
[1] = cited from earlier work
Source text: Several lines of evidence support the importance of electrostatic interactions in the observed stabilizations of RNA duplexes. First, as would be expected, higher numbers of cationic residues present in the depsipeptide/peptide led to greater increases in RNA duplex Tm (Table 1, entries #1–7). Second, the effect of His-containing depsipeptides was pH-dependent (Figs. 2d and 3c, d), as expected based on the His pKa of ~6.0. […] The ineffectiveness of this sequence is probably due to the l ...

[2] = system: RNA duplex 1 (5′-rCrGrCrUrArArArUrCrG-3′ & 5′-rCrGrArUrUrUrArGrCrG-3′); assay: RNA thermal denaturation (Tm) by UV hyperchromicity at 260 nm with synthetic peptides/depsipeptides, RNA duplex 1; format: binding
5′-Cy5-U20 RNA = assay: Gel mobility (band) shift assay; format: binding; conditions: 66.6–530 µM FAM-labeled sequence, 5′-Cy5-U20 RNA 26.6 µM, MES-TEA buffer pH 6, 12% native polyacrylamide gel
Procedure: The gel was cropped at the edges for clarity. […] Spectra were recorded in 100 mM MES-TEA buffer (pH 6). d Plot of the change in CD signal at 266 nm as a function of increasing concentrations of depsipeptide 14. Red and blue colors of the filled circles correspond to curves of the same color in panel (c). […] […] An addition of 1.25 µL of glycerol brought the sample volume to a total of 3.75 µL. Samples were loaded onto a 12% native polyacrylamide gel, run at 100 V for 90 min, and imaged using Azure Biosystems c430.

[3] = system: RNA duplex 1 (5′-rCrGrCrUrArArArUrCrG-3′ & 5′-rCrGrArUrUrUrArGrCrG-3′); assay: RNA thermal denaturation (Tm) by UV hyperchromicity at 260 nm with synthetic peptides/depsipeptides, RNA duplex 1; format: binding; conditions: 100 mM NaCl
Procedure: Each sample contained RNA duplex 1 (5′-rCrGrCrUrArArArUrCrG-3′ and 5′-rCrGrArUrUrUrArGrCrG-3′, 2.5 μM strand) and peptide/depsipeptide (100 μM) in buffered solution (10 mM phosphate, 100 mM NaCl, pH 7.0 or 10 mM acetate, 100 mM NaCl, pH 5.0). a Structures of depsipeptides used to systematically characterize cationic side chain effects on RNA duplex stability. Lactic acid residues are highlighted. Ac acetyl, Aba acetamidobenzoic acid, which was appended to the N-terminus to increase UV absorbance. b Structures of the Fmoc-didepsipeptide building blocks used for solid-phase synthesis of depsipeptide sequences. Fmoc fluorenylmethoxycarbonyl. c Comparative effects of oligo-didepsipeptide sequences 2–6 and analogous oligo-dipeptide and on the Tm of the RNA duplex (number of independent measurements: n = 3 for Arg and Lys sequences; n = 2 for His and Dab sequences; n = 4 for Orn sequences). The shaded areas correspond to the mean ± SD Tm measured for the RNA duplex alone (n = 16 independent measurements). Data are shown as a scatter plot with mean ± SD. d Comparative effects on RNA duplex Tm of depsipeptide sequences containing a single backbone ester (number of independent measurements: n = 3 for Arg; n = 2 for His, Orn, and Dab; n = 4 for Lys), relative to RNA duplex alone (n = 16 independent measurements). Data are shown as a scatter plot with mean ± SD. e To assess the impact of different cationic side chains on depsipeptide degradation rates, depsipeptides 7–11 (40 μM) were incubated at 37 °C in buffer (100 mM HEPES, 10 mM NaCl, pH 7.3). After 5 min, the reactions were quenched by the addition of 3% TFA, and samples were analyzed by HPLC.
(§1) Prior to Tm analyses, RNA samples were annealed in the appropriate buffer by heating to 75 °C and slowly cooling to room temperature. Depsipeptide/peptide was added to the annealed RNA and incubated at 4 °C for 20 min prior to carrying out the analysis. For analyses involving dry-down reaction mixtures, the Tm was determined by monitoring fluorescence increase upon melting of a fluorophore/quencher-labeled RNA duplex (5′-rCrGrArUrUrUrArGrCrG-/3IABkFQ/-3′ and 3′-rGrCrUrArArArUrCrGrC-FAM-5′) using a BioRad CFX Connect rtPCR instrument with a heating ramp of 1 °C/min and 20 μL final sample volumes. For analyses involving pure, synthetic compounds, the Tm of the RNA was determined by monitoring UV hyperchromicity at 260 nm using a Varian Cary Bio-100 spectrophotometer, with a heating ramp of 1 °C/min and 0.5- or 1-cm pathlength cells. The following RNA sequences were used: RNA duplex 1 = 5′-rCrGrCrUrArArArUrCrG-3′ and 5′-rCrGrArUrUrUrArGrCrG-3′; RNA duplex 2 = 5′-rArArArArUrUrUrArUrArUrUrArUrUrA-3′ and 5′-rUrArArUrArArUrArUrArArArUrUrUrU-3′; RNA duplex 3 = 5′-rArArCrGrUrArUrArCrGrUrU-3′ (palindromic); and H26a RNA = 5′-rArUrGrArGrUrArArCrCrGrUrArArGrGrUrGrArArArUrU-3′. RNA was present in each assay at a final concentration of 2.5 μM of the folded structure (2.5 μM each strand for duplex 1 and duplex 2, 5.0 μM palindromic strand for duplex 3, 2.5 μM strand for H26a RNA). Tm values were determined by nonlinear fitting of the melting curves using GraphPad Prism 8.2.1 for duplex 1 and H26a, or by finding the maximum of the first derivative of the curve using the Varian Cary Bio-100 software for duplex 2 and duplex 3.

RNA duplex 1 = assay: CD analysis of RNA duplex with peptides/depsipeptides; format: binding
Source text: The gel was cropped at the edges for clarity. […] […] Red and blue colors of the filled circles correspond to curves of the same color in panel (c). […] […] Scans were from 320 nm to 220 nm with a bandwidth of 5 nm, data pitch of 0.2 nm, and scan rate of 50 nm/min with three accumulations. […] Data were collected in independent triplicates and the data were averaged. Finally, data were smoothed and plotted using Matlab.

[4] = system: RNA duplex 2 (5′-rArArArArUrUrUrArUrArUrUrArUrUrA-3′ and 5′-rUrArArUrArArUrArUrArArArUrUrUrU-3′); assay: RNA thermal denaturation (Tm) by UV hyperchromicity, RNA duplex 2; format: binding
Procedure: as §1, with “3. Both methods of determining the Tm gave similar values for a given denaturation curve.” for “3.”

[5] = system: RNA duplex 3 (5′-rArArCrGrUrArUrArCrGrUrU-3′, palindromic); assay: RNA thermal denaturation (Tm) by UV hyperchromicity, RNA duplex 3; format: binding
Procedure: as §1, with “3. Both methods of determining the Tm gave similar values for a given denaturation curve.” for “3.”

[6] = system: H26a RNA (5′-rArUrGrArGrUrArArCrCrGrUrArArGrGrUrGrArArArUrU-3′); assay: RNA thermal denaturation (Tm) by UV hyperchromicity, H26a RNA hairpin; format: binding
Procedure: as §1, with “3. Both methods of determining the Tm gave similar values for a given denaturation curve.” for “3.”

[7] = system: 10-mer RNA duplex (5′-6-FAM-rCrGrCrUrArArArUrCrG-3′ & 5′-rCrGrArUrUrUrArGrCrG-3IABkFQ-3′); assay: RNA duplex Tm by rtPCR fluorescence with dry-down reaction mixtures; format: binding; conditions: not subjected to the dry-down reaction (non-dried)
Source text: Accordingly, we determined the effect of cationic proto-peptides on RNA duplex stability by monitoring changes in the melting temperature (Tm) of a short 10mer RNA duplex in the presence or absence of individual proto-peptide samples (Fig. 2). The complementary RNA strands were 5′- or 3′-labeled with either a fluorophore or a quencher so that the degree of RNA hybridization could be monitored by fluorescence in rtPCR instrumentation (Supplementary Fig. 9). […] For the Tm measurements, the proto-peptide samples were diluted to a final concentration of 25 mM (based on the amount of cationic amino acid used at the start of the dry-down) and mixed with the RNA duplex (2.5 μM each strand).
Dry-down reaction products were dissolved in deionized water to give a 100 mM stock solution based on the amount of monomers used at the start of the dry-down. […]
Prior to Tm analyses, RNA samples were annealed in the appropriate buffer by heating to 75 °C and slowly cooling to room temperature. […] For analyses involving dry-down reaction mixtures, the Tm was determined by monitoring fluorescence increase upon melting of a fluorophore/quencher-labeled RNA duplex (5′-rCrGrArUrUrUrArGrCrG-/3IABkFQ/-3′ and 3′-rGrCrUrArArArUrCrGrC-FAM-5′) using a BioRad CFX Connect rtPCR instrument with a heating ramp of 1 °C/min and 20 μL final sample volumes.

## NCC(N)C(=O)O (centres unmarked) [Dpr, 2,3-diaminopropionic acid]
[1]; when incorporated into oligomeric sequences
  pKa of side chain β-amine: ~ 6.3

## N[C@@H](Cc1c[nH]cn1)C(=O)O [His, histidine]
[1]; His side chain, no reference given
  pKa: ~ 6.0

## C[C@H](NC(=O)CNC(=O)c1ccc2c(c1)C(=O)OC21c2ccc(O)cc2Oc2cc(O)ccc21)C(=O)N[C@@H](CCN)C(=O)N[C@@H](CCCCN)C(=O)N[C@@H](C)C(=O)N[C@@H](CCN)C(=O)N[C@@H](CCCCN)C(=O)N[C@@H](C)C(=O)N[C@@H](CCN)C(=O)N[C@@H](CCCCN)C(=O)N[C@@H](C)C(=O)N[C@@H](CCN)C(=O)N[C@@H](CCCCN)C(=O)N[C@@H](C)C(=O)N[C@@H](CCN)C(=O)N[C@@H](CCCCN)C(N)=O [compound 12, 5-FAM-Gly-Ala-Dab-Lys-Ala-Dab-Lys-Ala-Dab-Lys-Ala-Dab-Lys-Ala-Dab-Lys NH2] (5FAM-GA[Dab]KA[Dab]KA[Dab]KA[Dab]KA[Dab]K-NH2)
[2]; observed Tm, peptide/depsipeptide 80 mM (so in the source), pH 7.0, mean ± SD
  RNA duplex 1 Tm: 54.4 ± 0.6 °C
[2]; peptide/depsipeptide 80 μM, pH 7.0, 10 mM phosphate, 100 mM NaCl
  RNA duplex 1 ΔTm: 10.6 °C
5′-Cy5-U20 RNA
  band shift of RNA in gel mobility shift assay: concentration-dependent band shift

## CC(=O)N[C@@H](Cc1ccc(O)cc1)C(=O)NCC(=O)N[C@@H](C)C(=O)N[C@@H](CCN)C(=O)N[C@@H](CCCCN)C(=O)O[C@@H](C)C(=O)N[C@@H](CCN)C(=O)N[C@@H](CCCCN)C(=O)O[C@@H](C)C(=O)N[C@@H](CCN)C(=O)N[C@@H](CCCCN)C(=O)O[C@@H](C)C(=O)N[C@@H](CCN)C(=O)N[C@@H](CCCCN)C(N)=O [compound 14, Ac-Tyr-Gly-Ala-Dab-Lys-lac-Dab-Lys-lac-Dab-Lys-lac-Dab-Lys-NH2] (Ac-YGA[Dab]K[Lac][Dab]K[Lac][Dab]K[Lac][Dab]K-NH2)
[3]; observed Tm with peptide/depsipeptide 100 µM, pH 7.0, 10 mM phosphate, RNA alone 43.8 ± 0.4, mean ± SD of 2-4 independent experiments
  RNA duplex 1 Tm: 52.4 ± 1.5 °C
[3]; peptide/depsipeptide 100 μM, RNA 2.5 μM each strand, 10 mM phosphate, pH 7.0, vs RNA alone at matched pH, mean of 2–4 replicates
  RNA duplex 1 ΔTm: 8.6 °C
RNA duplex 1; RNA duplex 5 µM, peptide/depsipeptide 0–10 µM, MES-TEA buffer (60 mM)
  changes in CD spectra of the RNA duplex upon addition: changes were observed in the CD spectra
RNA duplex 1; change in CD signal at 266 nm, one-site binding model, RNA duplex 1 5 μM each strand, depsipeptide 0–10 μM, MES-TEA buffer pH 6, 5 °C, independent triplicates averaged, read-out: apparent Kd
  Kd: ~3000 nM
[4]; observed Tm with peptide/depsipeptide 100 µM, pH 7.0, RNA alone 33.7 ± 0.7, mean ± SD of 2-4 independent experiments
  RNA duplex 2 Tm: 42.8 ± 0.6 °C
[4]; peptide/depsipeptide 100 μM, RNA 2.5 μM each strand, pH 7.0, 10 mM phosphate, 100 mM NaCl, mean of 2–4 replicates
  RNA duplex 2 ΔTm: 9.1 °C
[5]; observed Tm with peptide/depsipeptide 100 µM, pH 7.0, RNA alone 48.6 ± 0.7, mean ± SD of 2-4 independent experiments
  RNA duplex 3 Tm: 58.6 ± 0.7 °C
[5]; peptide/depsipeptide 100 μM, 5.0 μM palindromic strand, pH 7.0, 10 mM phosphate, 100 mM NaCl, mean of 2–4 replicates
  RNA duplex 3 ΔTm: 10.0 °C
[6]; observed Tm with peptide/depsipeptide 100 µM, pH 7.0, RNA alone 53.4 ± 0.5, mean ± SD of 2-4 independent experiments
  H26a RNA Tm: 63.8 ± 0.6 °C
[6]; peptide/depsipeptide 100 μM, RNA 2.5 μM strand, pH 7.0, 10 mM phosphate, 100 mM NaCl, mean of 2–4 replicates
  H26a RNA ΔTm: 10.4 °C

## NCCC(O)C(=O)O (centres unmarked) [hab, 2-hydroxy-4-aminobutyric acid]
[7]
  effect on RNA duplex Tm, non-dried controls: no effect on the Tm

## NCCCCC(O)C(=O)O (centres unmarked) [hah, 2-hydroxy-6-aminohexanoic acid]
[7]
  effect on RNA duplex Tm, non-dried controls: no effect on the Tm
